Assay results reported in patent publication US12054510B2, “2′ and/or 5′ amino-acid ester phosphoramidate 3′-deoxy adenosine derivatives as anti-cancer compounds” (Nucana plc, priority 2014, dated 2024).

How the values were obtained:
RL (CRL-2261) = test: ATP ViaLight plus cell viability assay; assay type: cell-based
Protocol: (§1) Certain compounds of the invention were subjected to further studies to test the cytotoxic activity of certain compounds of the invention and also to measure their activity against 4 haematological cancer cell lines • TdT positive CEM (Human ALL) • TdT negative K562 (Human CML) • TdT negative H1-60 (Human ANLL) • RL (CRL-2261) non-HD lymphoma • The concentrations of the active metabolite dATP (Cordycepin triphosphate) in these cell lines was also measured. • The cytotoxic activity and the intracellular 3′-dATP concentrations were also studied in the presence of hENT1, Adenosine Kinase (AK) and Adenosine Deaminase pharmacological inhibitors in CEM and RL cancer cell lines. Said inhibitors that mimic known cancer resistance mechanisms. Methods Cell Culture
(§2) HL-60, K562, CCRF-CEM and RL cell lines were cultured in RPMI-1640 medium (Sigma Aldrich, UK), which were supplemented with 10% Fetal Bovine Serum (FBS) (PAA Laboratories), 1% amphotericin B (5.5 ml) and 1% penicillin/streptomycin (5.5 ml) (PAA Laboratories) and grown in flasks at 37° C. incubator with 5% CO2.
(§3) The amount of ATP was used as a measurement of cell number and cell viability. ATP ViaLight™ plus assay kit (Lonza, USA: Product No. LT07-121) to detect ATP in cells treated in luminescence compatible 96 well plates (initial concentration of cells was 1×10^4 cells/well) with cordycepin and ProTides at concentrations of: 0, 0.1, 0.5, 1, 5 and 10 μM, followed by incubation for 72 hours at 37° C. incubator with 5% CO2. For inhibitor studies, 10 μM of NBTI or 1 μM EHNA or A-134974 was added and left for 5 minutes before adding the drugs (see section 5 for inhibitor details).
(§4) After incubation, 50 μl of cell lysis reagent was added to the 96 well plates to release the intracellular ATP, followed by 100 μl of ATP monitoring reagent (AMR). The luminescent values of each well were determined using FLUOstar OPTIMA microplate reader (BMG Labtech) which convert ATP into light by using luciferase enzyme. Therefore, the amount of luminescence produced was directly proportional to the amount of ATP.
Cell lines were treated in the same way as described above but before treatment with drugs, a number of inhibitors were added: • 1) Nitrobenzylthioinosine (NBTI) (Sigma-Aldrich, St. Louis, MO, product # N2255) blocks nucleoside transporters • 2) EHNA hydrochloride (Sigma-Aldrich, St. Louis, MO, product # E114) blocks adenosine deaminase • 3) Adenosine kinase inhibitor A-134974 dihydrochloride hydrate (Sigma-Aldrich, St. Louis, MO, product # A2846): blocks adenosine kinase
(§5) The dose-response curves of cytotoxicity of the drugs was determined using non-linear regression analysis of percentage cell viability versus concentration and EC50 values were obtained. The intracellular assay was conducted in five replicates for each condition. Intracellular assay was determined using paired t test (two-tailed) analysis of 3′ ATP/ATP concentration and p-values were obtained. For all the analysis, Prism Software program (GraphPad Software) was used and Microsoft Powerpoint® 2013 was used to plot the results.

CCRF-CEM = test: CellTiterGlo cell viability assay, initial screening; assay type: cell-based; settings: CCRF-CEM; 72 hr; Table II
Protocol: (§6) In vitro viability assays were performed to assess the effects of compounds on cell viability in 7 selected cell lines over 72 hr using the CellTiterGlo (CTG, Promega-G7573) assay. The tests were performed in duplicates with treatment of compounds at 9 points, 3.16 folds titration in 96 well plates over ˜72 hr. The compound starting concentrations were […]. Cell viability assay using CellTiterGlo in 96-well plate were performed. The compound treatment was 72 hrs, under standard growth conditions, and in duplicate. Compounds were dissolved to 40 mM with thawed […]. Compounds were serially diluted at 3.16 fold in thawed DMSO, and warmed to 37° C. before being dissolved in media (2 μl+200 μl). After compounds were dissolved in media (media was also warmed to 37° C.). Media containing compounds were warmed to 37° C. in incubator and then compounds in media were added to cell plates (50 μl+50 μl), in duplicates. The compounds final concentrations were from […] to 19.9 nM. All compound solubilities were checked and recorded again, then the plates were transferred to CO2 tissue culture incubator immediately and incubated for 3 days. DMSO final concentration is 0.5%.

MOLT-4 = test: as above; assay type: cell-based; settings: for M.I. %: maximum percentage inhibition of cell viability: MOLT-4, 72 hr, Table II
Protocol: as §6

KG-1 = test: as above; assay type: cell-based; settings: KG-1; 72 hr; Table II
Protocol: as §6

HepG2 = test: as above; assay type: cell-based; settings: for M.I. %: maximum percentage inhibition of cell viability: HepG2, 72 hr, Table II; for IC50: Homo sapiens, HepG2, 72 h, read-out: IC50 (relative IC50)
Protocol: as §6

MCF-7 = test: as above; assay type: cell-based; settings: MCF-7; 72 hr; Table II
Protocol: as §6

HL-60 [1] = test: as above; assay type: cell-based; settings: for M.I. %: maximum percentage inhibition of cell viability: HL-60, 72 hr, Table II; for IC50: Homo sapiens, HL-60, 72 h, read-out: IC50 (relative IC50)
Protocol: as §6

K562 [2] = test: as above; assay type: cell-based; settings: 72 hr, Table II
Protocol: as §6

RPMI-8226 = test: Solid tumour and haematological malignancy assay (CellTiterGlo); assay type: cell-based, Human; settings: for MI %: RPMI-8226, 72 hr
Protocol: (§7) In vitro viability assay were performed to assess the effects of compounds on cell viability in selected cell lines over 72 hr using the CellTiterGlo (CTG, Promega-G7573) assay. The tests were performed in duplicates with treatment of compounds at 9 points, 3.16 folds titration in 96 well plates over ˜72 hr. The compound starting concentrations were […]. Cell viability assay using CellTiterGlo in 96-well plate were performed. Compound treatment 72 hrs, standard growth conditions, duplicates. Compounds were dissolved to 40 mM with thawed […]. Compounds were serially diluted at 3.16 fold in thawed DMSO, and warmed to 37° C. before being dissolved in media (2 μl+200 μl). After compounds were dissolved in media, media containing compounds were warmed to 37° C. in incubator and then compounds in media were added to cell plates (50 μl+50 μl) in duplicates. The compounds' final concentrations were from 198M to 19.9 nM. All compound solubilities were checked and recorded again, then the plates were transferred to CO2 tissue culture incubator immediately and incubated for 3 days. DMSO final concentration is 0.5%.

SW620 = test: as above; assay type: cell-based; settings: for IC50: Homo sapiens, SW-620, 72 h, read-out: IC50 (absolute IC50); for MI %: SW620, 72 hr
Protocol: as §7

HL-60 [3] = test: ATP ViaLight plus cell viability assay; assay type: cell-based, Human; settings: for (FD) fold difference compared to Cordycepin = Cordycepin IC50/ProTide IC50: HL-60
Protocol: as §1, §2, §3, §4, §5

K562 [4] = test: ATP ViaLight plus cell viability assay; assay type: cell-based, Human; settings: for (FD) fold difference compared to Cordycepin = Cordycepin IC50/ProTide IC50: K562
Protocol: as §1, §2, §3, §4, §5

| SMILES | (FD) fold difference compared to Cordycepin = Cordycepin IC50/ProTide IC50 (RL (CRL-2261)) | (FD) fold difference compared to control (RL (CRL-2261); AK) | (FD) fold difference compared to control (RL (CRL-2261); EHNA) | (FD) fold difference compared to control (RL (CRL-2261); NBTI) | M.I. %: maximum percentage inhibition of cell viability (CCRF-CEM) [%] | M.I. %: maximum percentage inhibition of cell viability (MOLT-4) [%] | M.I. %: maximum percentage inhibition of cell viability (KG-1) [%] | M.I. %: maximum percentage inhibition of cell viability (HepG2) [%] | M.I. %: maximum percentage inhibition of cell viability (MCF-7) [%] | M.I. %: maximum percentage inhibition of cell viability (HL-60 [1]) [%] | IC50 (HL-60 [1]) [µM] | M.I. %: maximum percentage inhibition of cell viability (K562 [2]) [%] | MI % (RPMI-8226) [%] | IC50 (SW620) [µM] | MI % (SW620) [%] | (FD) fold difference compared to Cordycepin = Cordycepin IC50/ProTide IC50 (HL-60 [3]) | (FD) fold difference compared to Cordycepin = Cordycepin IC50/ProTide IC50 (K562 [4]) | IC50 (HepG2) [µM] | further results |
| --- | --- | --- | --- | --- | --- | --- | --- | --- | --- | --- | --- | --- | --- | --- | --- | --- | --- | --- | --- |
| C[C@H](NP(=O)(OC[C@@H]1C[C@@H](O)[C@H](n2cnc3c(N)ncnc32)O1)Oc1cccc2ccccc12)C(=O)OCc1ccccc1 (stereo partly drawn) [B, (2S)-benzyl 2-(((((2S,4R,5R)-5-(6-amino-9H-purin-9-yl)-4-hydroxytetrahydrofuran-2-yl)methoxy)(naphthalen-1-yloxy)phosphoryl)amino)propanoate] | 61 | 1 | 2 | 1 | 100 | 100 | 100 | 95 | 99 | 100 | 5 to 15 | 97 | 102 | 5 to 15 | 93 | 4 | 52 |  | IC50 (MOLT-4; Homo sapiens, MOLT-4, 72 h, read-out: IC50 (relative IC50)): 100 to 5000 nM |
| COC(=O)C(C)(C)NP(=O)(OC[C@@H]1C[C@@H](O)[C@H](n2cnc3c(N)ncnc32)O1)Oc1cccc2ccccc12 (stereo partly drawn) [E, Methyl 2-(((((2S,4R,5R)-5-(6-amino-9H-purin-9-yl)-4-hydroxytetrahydrofuran-2-yl)-methoxy)(naphthalen-1-yloxy)phosphoryl)amino)-2-methylpropanoate] | 2 | 1 | 1 | 1 | 90 | 97 | 69 | 59 | 78 | 74 | 15 to 100 | 81 | 89 | 15 to 100 | 74 | 1 | 1 | 15 to 100 |  |
| CCOC(=O)CCc1ccccc1OP(=O)(N[C@@H](C)C(=O)OCc1ccccc1)OC[C@@H]1C[C@@H](O)[C@H](n2cnc3c(N)ncnc32)O1 (stereo partly drawn) [F, (2S)-benzyl 2-(((((2S,4R,5R)-5-(6-amino-9H-purin-9-yl)-4-hydroxytetrahydrofuran-2-yl)methoxy)(2-(3-ethoxy-3-oxopropyl)phenoxy)phosphoryl)amino)propanoate] | 7 |  |  |  | 99 | 100 | 98 | 84 | 99 | 100 | 15 to 100 | 91 | 106 | 15 to 100 |  | 1 | 2 | 15 to 100 | IC50 (RPMI-8226; Homo sapiens, RPMI-8226, 72 h, read-out: IC50 (absolute IC50)): 15 to 100 µM; IC50 (HL-60 [3]; Homo sapiens, HL-60, 72 h): 8.3 µM; IC50 (K562 [4]; Homo sapiens, K562, 72 h): 6.3 µM |
